≈ marks a conversion by molar mass, not a printed value. Read-outs that look alike come from different tables or passages of the source.
How the values were obtained:
[1] = Salt screening (slurry crystallization); type: physicochemical; settings: slurry 50° C. then 25° C.
Method: About 45 mg was added to a suitable solvent and different equivalents of acids were added under stirring at 50° C. for about 2 hours and then at 25° C. for at least 32 hours. Ethanol, acetone, and ACN were used as screening solvents. When no precipitation was obtained or only a few solids were obtained, the solutions were placed at 5° C. for crystallization.
(§1) Obtained suspensions were taken out and centrifuged. Solids obtained was analysed by XRPD. Salts with high or medium crystallinity were further characterized (see Table 5).

Crystallinity by XRPD = type: physicochemical
Method: as §1
(§2) According to the salt screening results (see Table 4), totally 19 potential salt hits were identified. All the potential salt hits were further investigated by Differential Scanning Calorimetry (DSC), Thermogravimetric analysis (TGA), H-NMR, Ion chromatography (IC), Karl Fischer titration (KF), and Polarized Light Microscopy (PLM) to confirm their identity and evaluate their physicochemical properties as shown in Table 5 below.

[2] = Thermogravimetric analysis (TGA) weight loss; type: physicochemical; settings: salt screening sample, at the temperature given (80-200° C.)
Source text: as §2

[3] = type: physicochemical
Source text: as §2

[4] = type: physicochemical; settings: for chemical purity (%): solid state
[5] = Solubility in pH buffers and bio-relevant media at 37° C.; type: physicochemical; settings: thermodynamic from solid
[6] = Dynamic vapor sorption (DVS) test at 25° C.; type: physicochemical; settings: for 1st Desorp. (%) / 2nd Sorp. (%) / 1st Sorp. (%) / 2nd Desorp. (%): 25° C., cycle 40-95-0-95-40% RH
[7] = Thermogravimetric analysis (TGA) weight loss; type: physicochemical; settings: large scale batch, at the temperature printed in the same cell (100-170° C.)
[8] = Solubility in water at 25° C.; settings: thermodynamic from solid
[9] = large scale batch, listed as free base (polymorph B)
[10] = aqueous buffer, pH 4.5 (50 mM) acetate buffer, tested up to 2 mg/mL
[11] = aqueous buffer, pH 6.8 (50 mM) phosphate buffer, tested up to 2 mg/mL
[12] = pH 1.2 HCl buffer (0.1N HCl), simulated gastric fluid, pH 1.2 (0.1N HCl), tested up to 2 mg/mL
[13] = simulated gastric fluid, SGF, pH 2.0, tested up to 2 mg/mL
[14] = FaSSIF-V1, pH 6.5, tested up to 2 mg/mL
[15] = FeSSIF-V1, pH 5.0, tested up to 2 mg/mL

COc1cc(C(F)(F)F)c(OC)cc1[C@@H]1CCCNC1 [Free base (Polymorph B), (S)-3-(2,5-dimethoxy-4-(trifluoromethyl)phenyl)piperidine]
Salt screening result ([1]; ACN): Clear solution
Salt screening result ([1]; Acetone): Clear solution
Salt screening result ([1]; EtOH): Clear solution
Crystallinity (Crystallinity by XRPD; large scale batch): High
Crystallinity (Crystallinity by XRPD; [9]): high crystallinity
Crystallinity (Crystallinity by XRPD; salt screening sample): High
Weight loss (%) [2]: 8.0%
Water content (% w/w) ([3]; large scale batch): 8.0% w/w
Water content (% w/w) [3, 9]: about 8 % w/w
Water content (% w/w) ([3]; salt screening sample): 8% w/w
Initial chemical purity (%) ([4]; before storage): 98.7%
chemical purity (%) ([4]; 25° C./92% RH, open container, 1 week): 98.7%
chemical purity (%) ([4]; 40° C./75% RH, open container, 1 week): 98.8%
chemical purity (%) ([4]; 60° C., tight container, 1 week): 98.5%
Bulk stability ([4]; stressed conditions: 25° C./92% RH, 40° C./75% RH, 60° C., 1 week): chemically stable in these conditions, but physically unstable at 60 °C
solubility at 2 h [5, 10]: > 2000 µg/mL
solubility at 24 h [5, 10]: > 2000 µg/mL
solubility at 2 h [5, 11]: 1540 µg/mL (≈ 5.32 mM)
solubility at 24 h [5, 11]: 1580 µg/mL (≈ 5.46 mM)
solubility at 2 h [5, 12]: > 2000 µg/mL
solubility at 24 h [5, 12]: > 2000 µg/mL
solubility at 2 h [5, 13]: > 2000 µg/mL
solubility at 24 h [5, 13]: > 2000 µg/mL
solubility at 2 h [5, 14]: > 2000 µg/mL
solubility at 24 h [5, 14]: > 2000 µg/mL
solubility at 2 h [5, 15]: > 2000 µg/mL
solubility at 24 h [5, 15]: > 2000 µg/mL
solubility at 2 h ([5]; Water, tested up to 2 mg/mL): 110 µg/mL (≈ 0.38 mM)
solubility at 24 h ([5]; Water, tested up to 2 mg/mL): 140 µg/mL (≈ 0.484 mM)
1st Desorp. (%) ([6]; 0% RH): 0.02%
2nd Sorp. (%) ([6]; 0% RH): 0.02%
1st Desorp. (%) ([6]; 10% RH): 0.20%
2nd Sorp. (%) ([6]; 10% RH): 0.002%
1st Desorp. (%) ([6]; 20% RH): 6.07%
2nd Sorp. (%) ([6]; 20% RH): 0.007%
1st Desorp. (%) ([6]; 30% RH): 6.29%
2nd Sorp. (%) ([6]; 30% RH): 0.02%
1st Desorp. (%) ([6]; 40% RH): 8.54%
1st Sorp. (%) ([6]; 40% RH): 8.34%
2nd Desorp. (%) ([6]; 40% RH): 8.23%
2nd Sorp. (%) ([6]; 40% RH): 0.02%
1st Desorp. (%) ([6]; 50% RH): 8.90%
1st Sorp. (%) ([6]; 50% RH): 8.83%
2nd Desorp. (%) ([6]; 50% RH): 8.76%
2nd Sorp. (%) ([6]; 50% RH): 0.04%
1st Desorp. (%) ([6]; 60% RH): 8.90%
1st Sorp. (%) ([6]; 60% RH): 8.90%
2nd Desorp. (%) ([6]; 60% RH): 8.79%
2nd Sorp. (%) ([6]; 60% RH): 0.06%
1st Desorp. (%) ([6]; 70% RH): 8.97%
1st Sorp. (%) ([6]; 70% RH): 8.96%
2nd Desorp. (%) ([6]; 70% RH): 8.87%
2nd Sorp. (%) ([6]; 70% RH): 0.12%
1st Desorp. (%) ([6]; 80% RH): 9.03%
1st Sorp. (%) ([6]; 80% RH): 9.02%
2nd Desorp. (%) ([6]; 80% RH): 8.95%
2nd Sorp. (%) ([6]; 80% RH): 3.80%
1st Desorp. (%) ([6]; 90% RH): 9.13%
1st Sorp. (%) ([6]; 90% RH): 9.11%
2nd Desorp. (%) ([6]; 90% RH): 9.06%
2nd Sorp. (%) ([6]; 90% RH): 9.00%
1st Desorp. (%) ([6]; 95% RH): 9.21%
1st Sorp. (%) ([6]; 95% RH): 9.21%
2nd Desorp. (%) ([6]; 95% RH): 9.14%
2nd Sorp. (%) ([6]; 95% RH): 9.14%
Hygroscopicity ([6]; DVS at 25° C., grade in words): undergoes dehydration when relative humidity is below 40%
Weight loss (%) at Temperature (° C.) [7]: 8.0 at %
Weight loss (%) at Temperature (° C.) ([7]; listed as free base (polymorph B)): about 8%
solubility at 2 h [8]: 110 µg/mL (≈ 0.38 mM)
solubility at 24 h [8]: 140 µg/mL (≈ 0.484 mM)

Source: US12723024B2 (priority 2021, dated 2026)
